Assay results reported in PubChem BioAssay AID1963979 (Molecular Pharmacology Branch, DTP, NCI, 2024).
Several values for one entry are separate records, joined by “and”; a condition that tells them apart may be missing. Identical values can stand only once.

Test system: 361931-004-R-J1-PDC multicell spheroid viability
Assay: Anticancer human tumor 361931-004-R-J1-PDC patient-derived colon adenocarcinoma cell line growth inhibition [PI3K]
Conditions: for viability, T/C: stronger effect = lower value
In short: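 Tumor cells grown as multi-cell spheroids with HUVEC endothelial cells and MSC fibroblast-like stroma were treated with targeted agents combined with inavolisib, alpelisib, duvelisib or copanlisib. Doses fell in half-log steps from near clinical Cmax, else from 10 microM. Viability was measured.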

[1] = curve of first compound, second compound 0.0316 µM
[2] = curve of first compound, second compound 0.1 µM
[3] = curve of first compound, second compound 0.316 µM
[4] = curve of first compound, second compound 1 µM
[5] = curve of first compound, second compound 3.16 µM
[6] = curve of first compound, second compound 10 µM
[7] = second compound 0.0316 µM, first compound 0.0316 µM
[8] = second compound 0.0316 µM, first compound 0.1 µM
[9] = second compound 0.0316 µM, first compound 0.316 µM
[10] = second compound 0.0316 µM, first compound 1 µM
[11] = second compound 0.0316 µM, first compound 3.16 µM
[12] = second compound 0.0316 µM, first compound 10 µM
[13] = second compound 0.1 µM, first compound 0.0316 µM
[14] = second compound 0.1 µM, first compound 0.1 µM
[15] = second compound 0.1 µM, first compound 0.316 µM
[16] = second compound 0.1 µM, first compound 1 µM
[17] = second compound 0.1 µM, first compound 3.16 µM
[18] = second compound 0.1 µM, first compound 10 µM
[19] = second compound 0.316 µM, first compound 0.0316 µM
[20] = second compound 0.316 µM, first compound 0.1 µM
[21] = second compound 0.316 µM, first compound 0.316 µM
[22] = second compound 0.316 µM, first compound 1 µM
[23] = second compound 0.316 µM, first compound 3.16 µM
[24] = second compound 0.316 µM, first compound 10 µM
[25] = second compound 1 µM, first compound 0.0316 µM
[26] = second compound 1 µM, first compound 0.1 µM
[27] = second compound 1 µM, first compound 0.316 µM
[28] = second compound 1 µM, first compound 1 µM
[29] = second compound 1 µM, first compound 3.16 µM
[30] = second compound 1 µM, first compound 10 µM
[31] = second compound 3.16 µM, first compound 0.0316 µM
[32] = second compound 3.16 µM, first compound 0.1 µM
[33] = second compound 3.16 µM, first compound 0.316 µM
[34] = second compound 3.16 µM, first compound 1 µM
[35] = second compound 3.16 µM, first compound 3.16 µM
[36] = second compound 3.16 µM, first compound 10 µM
[37] = second compound 10 µM, first compound 0.0316 µM
[38] = second compound 10 µM, first compound 0.1 µM
[39] = second compound 10 µM, first compound 0.316 µM
[40] = second compound 10 µM, first compound 1 µM
[41] = second compound 10 µM, first compound 3.16 µM
[42] = second compound 10 µM, first compound 10 µM
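Note: spheroids exposed to agents for seven days before readout.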

With CC(Cn1ccc(-c2ccc(C#N)c(Cl)c2)n1)NC(=O)c1cc(C(C)O)[nH]n1 (stereo not given) + CC(Nc1ncnc2nc[nH]c12)c1cc2cccc(Cl)c2c(=O)n1-c1ccccc1 the IC50 [1] was > 10 µM, the IC50 [2] was > 10 µM and the IC50 [3] was > 10 µM. The IC50 [4] was > 10 µM, the IC50 [5] was > 10 µM and the IC50 [6] was > 10 µM. It also gave a viability, T/C [7] of 102%, a viability, T/C [8] of 92.6% and a viability, T/C [9] of 96.7%. The viability, T/C [10] was 90%, the viability, T/C [11] was 104% and the viability, T/C [12] was 102%. The viability, T/C [13] was 105%, the viability, T/C [14] was 96.9% and the viability, T/C [15] was 103%. It also gave a viability, T/C [16] of 101%, a viability, T/C [17] of 106% and a viability, T/C [18] of 99.4%. The viability, T/C [19] was 102%, the viability, T/C [20] was 103% and the viability, T/C [21] was 104%. For the same compound, the viability, T/C [22] was 103%, the viability, T/C [23] was 108% and the viability, T/C [24] was 97.4%. For the same compound, the viability, T/C [25] was 99.5%, the viability, T/C [26] was 102% and the viability, T/C [27] was 96.4%. The viability, T/C [28] was 98%, the viability, T/C [29] was 100% and the viability, T/C [30] was 106%. The viability, T/C [31] was 98.8%, the viability, T/C [32] was 104% and the viability, T/C [33] was 100%. The viability, T/C [34] was 104%, the viability, T/C [35] was 103% and the viability, T/C [36] was 104%. The viability, T/C [37] was 105%, the viability, T/C [38] was 95.9% and the viability, T/C [39] was 100%. The viability, T/C [40] was 99%, the viability, T/C [41] was 109% and the viability, T/C [42] was 98.7%.
With C[C@@H](NC(=O)c1ncnc(N)c1Cl)c1ncc(C(=O)Nc2cc(C(F)(F)F)c(Cl)cn2)s1 + CC(Nc1ccc2c(c1)OCCn1cc(N3C(=O)OCC3C(F)F)nc1-2)C(N)=O the IC50 (curve of first compound, second compound 0.00316 µM) was > 10 µM, the IC50 (curve of first compound, second compound 0.01 µM) was > 10 µM and the IC50 [1] was > 10 µM. For the same compound, the IC50 [2] was > 10 µM, the IC50 [3] was > 10 µM and the IC50 [4] was 5.85 µM. It also gave a viability, T/C (second compound 0.00316 µM, first compound 0.0316 µM) of 110%, a viability, T/C (second compound 0.00316 µM, first compound 0.1 µM) of 102% and a viability, T/C (second compound 0.00316 µM, first compound 0.316 µM) of 105%. It also gave a viability, T/C (second compound 0.00316 µM, first compound 1 µM) of 91.2%, a viability, T/C (second compound 0.00316 µM, first compound 3.16 µM) of 96.8% and a viability, T/C (second compound 0.00316 µM, first compound 10 µM) of 84.6%. For the same compound, the viability, T/C (second compound 0.01 µM, first compound 0.0316 µM) was 110%, the viability, T/C (second compound 0.01 µM, first compound 0.1 µM) was 109% and the viability, T/C (second compound 0.01 µM, first compound 0.316 µM) was 98%. It also gave a viability, T/C (second compound 0.01 µM, first compound 1 µM) of 89.6%, a viability, T/C (second compound 0.01 µM, first compound 3.16 µM) of 95% and a viability, T/C (second compound 0.01 µM, first compound 10 µM) of 75.4%. It also gave a viability, T/C [7] of 101%, a viability, T/C [8] of 105% and a viability, T/C [9] of 92.2%. It also gave a viability, T/C [10] of 99%, a viability, T/C [11] of 82.4% and a viability, T/C [12] of 73.1%. The viability, T/C [13] was 97.6%, the viability, T/C [14] was 97.1% and the viability, T/C [15] was 92.1%. The viability, T/C [16] was 88.7%, the viability, T/C [17] was 89.1% and the viability, T/C [18] was 59.9%. It also gave a viability, T/C [19] of 97.9%, a viability, T/C [20] of 86.8% and a viability, T/C [21] of 75.9%. The viability, T/C [22] was 78.2%, the viability, T/C [23] was 70.5% and the viability, T/C [24] was 47.2%. For the same compound, the viability, T/C [25] was 77.9%, the viability, T/C [26] was 80.2% and the viability, T/C [27] was 73.5%. The viability, T/C [28] was 66%, the viability, T/C [29] was 61.4% and the viability, T/C [30] was 41.5%.
CC(C)NCC(C(=O)N1CCN(c2ncnc3c2C(C)CC3O)CC1)c1ccc(Cl)cc1 (stereo not given) + CC(Nc1ncnc2nc[nH]c12)c1cc2cccc(Cl)c2c(=O)n1-c1ccccc1 showed an IC50 [1] of 3.51 µM, an IC50 [2] of 3.26 µM and an IC50 [3] of 2.91 µM. It also gave an IC50 [4] of 4.19 µM, an IC50 [5] of 2.99 µM and an IC50 [6] of 3.19 µM. It also gave a viability, T/C [7] of 99.7%, a viability, T/C [8] of 97.3% and a viability, T/C [9] of 99%. For the same compound, the viability, T/C [10] was 78%, the viability, T/C [11] was 52.6% and the viability, T/C [12] was 34.3%. For the same compound, the viability, T/C [13] was 104%, the viability, T/C [14] was 99.3% and the viability, T/C [15] was 99.8%. It also gave a viability, T/C [16] of 81.3%, a viability, T/C [17] of 50.8% and a viability, T/C [18] of 31.7%. For the same compound, the viability, T/C [19] was 101%, the viability, T/C [20] was 104% and the viability, T/C [21] was 94%. For the same compound, the viability, T/C [22] was 79.1%, the viability, T/C [23] was 47.4% and the viability, T/C [24] was 29.8%. It also gave a viability, T/C [25] of 106%, a viability, T/C [26] of 104% and a viability, T/C [27] of 95%. For the same compound, the viability, T/C [28] was 86.1%, the viability, T/C [29] was 54.8% and the viability, T/C [30] was 31.9%. The viability, T/C [31] was 105%, the viability, T/C [32] was 107% and the viability, T/C [33] was 98.3%. The viability, T/C [34] was 79.6%, the viability, T/C [35] was 48.6% and the viability, T/C [36] was 26.8%. It also gave a viability, T/C [37] of 106%, a viability, T/C [38] of 93.9% and a viability, T/C [39] of 102%. It also gave a viability, T/C [40] of 76.7%, a viability, T/C [41] of 51.5% and a viability, T/C [42] of 26.7%.
For Cn1ncc(Cl)c1-c1cc(C(=O)NC(CN)Cc2cccc(F)c2)sc1Cl (stereo not given) + Cc1nc(NC(=O)N2CCCC2C(N)=O)sc1-c1ccnc(C(C)(C)C(F)(F)F)c1, the IC50 [1] was 1.32 µM, the IC50 [2] was 0.922 µM and the IC50 [3] was 0.793 µM. It also gave an IC50 [4] of 0.715 µM, an IC50 [5] of 0.628 µM and an IC50 [6] of 0.411 µM. For the same compound, the viability, T/C [7] was 98.5%, the viability, T/C [8] was 95% and the viability, T/C [9] was 83.4%. The viability, T/C [10] was 53.4%, the viability, T/C [11] was 34.3% and the viability, T/C [12] was 19.7%. For the same compound, the viability, T/C [13] was 96.3%, the viability, T/C [14] was 95.3% and the viability, T/C [15] was 71.8%. It also gave a viability, T/C [16] of 48.8%, a viability, T/C [17] of 29.8% and a viability, T/C [18] of 20.5%. For the same compound, the viability, T/C [19] was 100%, the viability, T/C [20] was 87.5% and the viability, T/C [21] was 77.2%. For the same compound, the viability, T/C [22] was 40%, the viability, T/C [23] was 28% and the viability, T/C [24] was 14.5%. It also gave a viability, T/C [25] of 89.8%, a viability, T/C [26] of 93.7% and a viability, T/C [27] of 72.3%. For the same compound, the viability, T/C [28] was 39.1%, the viability, T/C [29] was 28.8% and the viability, T/C [30] was 16%. The viability, T/C [31] was 77.4%, the viability, T/C [32] was 87.1% and the viability, T/C [33] was 67.8%. For the same compound, the viability, T/C [34] was 35.1%, the viability, T/C [35] was 29.2% and the viability, T/C [36] was 11.6%. It also gave a viability, T/C [37] of 77.2%, a viability, T/C [38] of 69.1% and a viability, T/C [39] of 54.9%. It also gave a viability, T/C [40] of 34.2%, a viability, T/C [41] of 20.6% and a viability, T/C [42] of 7.91%.
With C#Cc1c(F)ccc2cc(O)cc(-c3ncc4c(N5CC6CCC(C5)N6)nc(OCC56CCCN5CC(F)C6)nc4c3F)c12 (stereo not given) the viability, T/C (compound 0.0316 µM) was 104% [middle of 4 runs], the viability, T/C (compound 0.1 µM) was 106% [middle of 4 runs] and the viability, T/C (compound 0.316 µM) was 100% [middle of 4 runs]. The viability, T/C (compound 1 µM) was 104% [middle of 4 runs], the viability, T/C (compound 3.16 µM) was 96.7% [middle of 4 runs] and the IC50 (curve of compound) was > 10 µM.
CC1(C)CCC(CN2CCN(c3ccc(C(=O)NS(=O)(=O)c4ccc(NCC5CCOCC5)c([N+](=O)[O-])c4)c(Oc4cnc5[nH]ccc5c4)c3)CC2)=C(c2ccc(Cl)cc2)C1 was tested, and the viability, T/C (compound 0.0316 µM) was 100% [middle of 4 runs], the viability, T/C (compound 0.1 µM) was 101% [middle of 4 runs] and the viability, T/C (compound 0.316 µM) was 101% [middle of 4 runs]. The viability, T/C (compound 1 µM) was 102% [middle of 4 runs], the viability, T/C (compound 10 µM) was 3.75% [middle of 4 runs] and the IC50 (curve of compound) was 4.94 µM and 4.18 µM and 5.61 µM.
